Experimental findings from EP4778924A1 (Huons Co., Ltd., priority 2023, dated 2025) are described below.

pIC50: −log10 of the molar value. Structures can show the parent of a compound that is named as a salt. Where only a bound is given, the exact number is not on record here.

In this assay the target is T1, Proton Pump (H^+,K^+-ATPase) (Sus scrofa, UniProt P19156).
T1 construct: gastric vesicles were isolated from porcine stomachs; from tissue; host or cells: porcine stomach (gastric vesicles)
T1 sequence (P19156 2-1034 limits assumed): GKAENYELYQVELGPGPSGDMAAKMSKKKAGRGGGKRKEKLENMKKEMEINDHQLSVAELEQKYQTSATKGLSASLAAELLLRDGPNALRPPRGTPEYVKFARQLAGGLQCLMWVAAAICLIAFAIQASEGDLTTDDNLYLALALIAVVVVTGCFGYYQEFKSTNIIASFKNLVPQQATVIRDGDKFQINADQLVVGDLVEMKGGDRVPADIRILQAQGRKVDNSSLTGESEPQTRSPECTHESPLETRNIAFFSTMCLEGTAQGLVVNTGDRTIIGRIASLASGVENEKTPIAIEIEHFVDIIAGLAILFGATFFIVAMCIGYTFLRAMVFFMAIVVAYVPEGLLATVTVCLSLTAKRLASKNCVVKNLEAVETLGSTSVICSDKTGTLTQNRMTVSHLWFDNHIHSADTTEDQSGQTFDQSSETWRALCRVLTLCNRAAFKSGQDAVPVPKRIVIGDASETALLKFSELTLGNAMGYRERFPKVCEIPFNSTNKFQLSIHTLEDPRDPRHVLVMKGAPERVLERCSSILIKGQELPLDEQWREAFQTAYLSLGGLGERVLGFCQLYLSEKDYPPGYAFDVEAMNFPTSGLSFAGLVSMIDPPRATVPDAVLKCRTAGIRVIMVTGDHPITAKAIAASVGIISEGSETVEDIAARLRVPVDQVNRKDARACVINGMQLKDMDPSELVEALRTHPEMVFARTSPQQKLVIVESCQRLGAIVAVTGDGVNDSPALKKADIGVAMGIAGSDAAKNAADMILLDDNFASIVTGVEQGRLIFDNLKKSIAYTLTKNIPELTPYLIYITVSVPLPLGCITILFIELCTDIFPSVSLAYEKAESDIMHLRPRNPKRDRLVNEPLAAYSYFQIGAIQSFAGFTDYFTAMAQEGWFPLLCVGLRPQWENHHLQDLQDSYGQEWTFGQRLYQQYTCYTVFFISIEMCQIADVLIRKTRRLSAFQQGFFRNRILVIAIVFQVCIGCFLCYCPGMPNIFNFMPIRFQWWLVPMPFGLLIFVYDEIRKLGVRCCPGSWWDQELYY
T1 sequence (P18434 whole entry partner): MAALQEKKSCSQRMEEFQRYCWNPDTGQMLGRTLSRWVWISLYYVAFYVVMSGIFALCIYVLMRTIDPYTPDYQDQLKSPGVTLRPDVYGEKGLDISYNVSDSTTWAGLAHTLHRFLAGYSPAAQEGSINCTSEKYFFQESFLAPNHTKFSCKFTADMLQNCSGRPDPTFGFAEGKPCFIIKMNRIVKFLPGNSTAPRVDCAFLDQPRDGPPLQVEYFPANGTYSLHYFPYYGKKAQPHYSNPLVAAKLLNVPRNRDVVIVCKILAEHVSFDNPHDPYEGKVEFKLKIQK
As to the kind of experiment: Inhibitory activity on proton pump (H+,K+-ATPase) activity, porcine gastric vesicles, malachite green readout. The class given is biochemical. The following applies: for pIC50: porcine gastric vesicles, pH 6.5, 8 mM KCl, 0.2 mM ATP; for inhibitory activity against proton pump activity: result in words. As for the experimental part:
Specifically, gastric vesicles were isolated from porcine stomachs, and the protein content of the vesicles was quantified using a BSA kit (Bio-Rad, 5000205). All reactions were performed in 96-well plates with a reaction volume of […] containing 100 ng of vesicles. 10 mM valinomycin and the test compound were added to reaction buffer (50 mM Tris-HEPES, 5 mM MgCl2, 8 mM KCl, pH 6.5) containing porcine gastric vesicles at various concentrations, and the mixture was incubated at 37°C for 30 minutes. DMSO or test compounds at different concentrations were added after diluting them to a final DMSO concentration of 0.1%. 0.2 mM adenosine triphosphate (ATP) was then added to the reaction buffer and incubated at 37°C for 20 minutes. The reaction was stopped with 0.2% Tween 20, followed by the addition of malachite green (Sigma Aldrich, MAK307) and incubation at room temperature for 30 minutes. The optical density (OD) value was measured at 620 nm using a microplate reader (Spectramax M5e, Molecular devices). The percent (%) inhibition was derived from the OD values of the control group and various concentrations of the test compounds. The IC50 of the test compounds was analyzed using nonlinear regression using the GraphPad Prism8 program using the % inhibition value at each concentration.

On to `Cc1cccc(C)c1CNc1cc(NC(=O)N2CC(c3ccccc3)C2)cn2c(C)c(C)nc12.O=C(O)CC(O)(CC(=O)O)C(=O)O` [Example 77, N-(8-((2,6-dimethylbenzyl)amino)-2,3-dimethylimidazo[1,2-a]pyridin-6-yl)-3-phenylazetidine-1-carboxamide citrate], for which the negative-log IC50 (pIC50) is above 7.30 and the “inhibitory activity against proton pump activity” value (“inhibitory activity” for short) is “excellent inhibitory properties”.

`Cc1cccc(C)c1CNc1cc(N)cn2c(C)c(C)nc12` [Preliminary Example 1, N^8-(2,6-dimethylbenzyl)-2,3-dimethylimidazo[1,2-a]pyridine-6,8-diamine] had a negative-log IC50 (pIC50) of 7.00 to 7.30.

For the compound `CC(=O)NCCNC(=O)Nc1cc(NCc2c(C)cccc2C)c2nc(C)c(C)n2c1` [Example 73, N-(2-(3-(8-((2,6-dimethylbenzyl)amino)-2,3-dimethylimidazo[1,2-a]pyridin-6-yl)ureido)ethyl)acetamide], the negative logarithm of the IC50 (pIC50) was 6.30 to 7.00.

Compound `CCCNC(=O)Nc1cc(NCc2c(C)cccc2C)c2nc(C)c(C)n2c1` [Example 54] had a pIC50 of 6.30 to 7.00.

As for `Cc1cccc(C)c1CNc1cc(NC(=O)CNC(=O)C2CC(O)C2)cn2c(C)c(C)nc12` (stereo not shown) [Example 58, N-(2-((8-((2,6-dimethylbenzyl)amino)-2,3-dimethylimidazo[1,2-a]pyridin-6-yl)amino)-2-oxoethyl)-3-hydroxycyclobutane-1-carboxamide], the pIC50 was 6.30 to 7.00.

Turning to `CNC(=O)N1CC[C@H]1C(=O)Nc1cc(NCc2c(C)cccc2C)c2nc(C)c(C)n2c1` [Example 79, (S)-N2-(8-((2,6-dimethylbenzyl)amino)-2,3-dimethylimidazo[1,2-a]pyridin-6-yl)-N1-methylazetidine-1,2-dicarboxamide], the pIC50 is 6.30 to 7.00.

`CCOC(=O)CC(=O)Nc1cc(NCc2c(C)cccc2C)c2nc(C)c(C)n2c1` [Example 34, ethyl 3-((8-((2,6-dimethylbenzyl)amino)-2,3-dimethylimidazo[1,2-a]pyridin-6-yl)amino)-3-oxopropanoate] had a negative logarithm of the IC50 (pIC50) below 6.30.

As to `Cc1cccc(C)c1CNc1cc(NS(=O)(=O)C2CCC2)cn2c(C)c(C)nc12` [Example 18, N-(8-((2,6-dimethylbenzyl)amino)-2,3-dimethylimidazo[1,2-a]pyridin-6-yl)cyclobutanesulfonamide], the negative-log IC50 (pIC50) is below 6.30.

In turn, `CCNC(=O)Nc1cc(NCc2c(C)cccc2C)c2nc(C)c(C)n2c1` [Example 22, 1-(8-((2,6-dimethylbenzyl)amino)-2,3-dimethylimidazo[1,2-a]pyridin-6-yl)-3-ethylurea] showed a negative logarithm of the IC50 (pIC50) of 7.00 to 7.30.

Regarding `Cc1cccc(C)c1CNc1cc(NC(=O)CCOCCC(=O)O)cn2c(C)c(C)nc12` [Example 39], the pIC50 is below 6.30.

Take `Cc1cccc(C)c1CNc1cc(NC(=O)[C@@]2(C)CCN2)cn2c(C)c(C)nc12` [Example 75, (R)-N-(8-((2,6-dimethylbenzyl)amino)-2,3-dimethylimidazo[1,2-a]pyridin-6-yl)-2-methylazetidine-2-carboxamide hydrochloride]: the pIC50 is 6.30 to 7.00.

The compound `Cc1cccc(C)c1CNc1cc(NC(C)C)cn2c(C)c(C)nc12` [Example 92, N^8-(2,6-dimethylbenzyl)-N^6-isopropyl-2,3-dimethylimidazo [1,2-a] pyridine-6,8-diamine] had a negative-log IC50 (pIC50) below 6.30.

In turn, `Cc1cccc(C)c1CNc1cc(NC(=O)C2CC(F)C2)cn2c(C)c(C)nc12` (stereo not shown) [Example 17, N-(8-((2,6-dimethylbenzyl)amino)-2,3-dimethylimidazo[1,2-a]pyridin-6-yl)-3-fluorocyclobutane-1-carboxamide] gave a negative logarithm of the IC50 (pIC50) of 6.30 to 7.00.

Compound `Cc1cccc(C)c1CNc1cc(NC(=O)[C@H]2CCCNC2)cn2c(C)c(C)nc12` [Example 118, (S)-N-(8-((2,6-dimethylbenzyl)amino)-2,3-dimethylimidazo[1,2-a]pyridin-6-yl)piperidine-3-carboxamide hydrochloride] showed a negative-log IC50 (pIC50) of 6.30 to 7.00.

For the compound `COc1cc(/C=C/C(=O)Nc2cc(NCc3c(C)cccc3C)c3nc(C)c(C)n3c2)ccc1OC(C)=O` [Example 108, (E)-4-(3-((8-((2,6-dimethylbenzyl)amino)-2,3-dimethylimidazo[1,2-a]pyridin-6-yl)amino)-3-oxoprop-1-en-1-yl)-2-methoxyphenyl acetate], the pIC50 is below 6.30.

For the compound `Cc1cc(F)cc(C)c1CNc1cc(NC(=O)C2(O)CC2)cn2c(C)c(C)nc12` [Example 115, N-(8-((4-fluoro-2,6-dimethylbenzyl)amino)-2,3-dimethylimidazo[1,2-a]pyridin-6-yl)-1-hydroxycyclopropane-1-carboxamide], the pIC50 was above 7.30 and the “inhibitory activity” value was “excellent inhibitory properties”.

In turn, `Cc1cccc(C)c1CNc1cc(NC(=O)[C@H](C)O)cn2c(C)c(C)nc12` [Example 96, (S)-N-(8-((2,6-dimethylbenzyl)amino)-2,3-dimethylimidazo[1,2-a]pyridin-6-yl)-2-hydroxypropanamide citrate] showed a negative-log IC50 (pIC50) of 6.30 to 7.00.

`Cc1cccc(C)c1CNc1cc(NC(=O)CN(C)C)cn2c(C)c(C)nc12` [Example 53, 2-(dimethylamino)-N-(8-((2,6-dimethylbenzyl)amino)-2,3-dimethylimidazo[1,2-a]pyridin-6-yl)acetamide] gave a negative logarithm of the IC50 (pIC50) of 6.30 to 7.00.

Take `Cc1cccc(C)c1CNc1cc(NC(=O)CNC(=O)C2CC(F)C2)cn2c(C)c(C)nc12` (stereo not shown) [Example 59, N-(2-((8-((2,6-dimethylbenzyl)amino)-2,3-dimethylimidazo[1,2-a]pyridin-6-yl)amino)-2-oxoethyl)-3-fluorocyclobutane-1-carboxamide]: the pIC50 was 6.30 to 7.00.

In the case of `CNCC(=O)Nc1cc(NCc2c(C)cccc2C)c2nc(C)c(C)n2c1` [Example 98, N-(8-((2,6-dimethylbenzyl)amino)-2,3-dimethylimidazo[1,2-a]pyridin-6-yl)-2-(methylamino)acetamide hydrochloride], the negative-log IC50 (pIC50) is 7.00 to 7.30.

On to `CNC(=O)Nc1cc(NCc2c(C)cccc2C)c2nc(C)c(C)n2c1` [Example 33, hydrochloride], for which the negative-log IC50 (pIC50) was above 7.30 and the “inhibitory activity” value is on record as “excellent inhibitory properties”.

As for `Cc1cccc(C)c1CNc1cc(NC(=O)N2CCC(c3ccccc3)CC2)cn2c(C)c(C)nc12` [Example 82, N-(8-((2,6-dimethylbenzyl)amino)-2,3-dimethylimidazo[1,2-a]pyridin-6-yl)-4-phenylpiperidine-1-carboxamide], the pIC50 was 6.30 to 7.00.

As for `Cc1cc(F)cc(C)c1CNc1cc(NC(=O)[C@H](C)O)cn2c(C)c(C)nc12` [Example 114, (S)-N-(8-((4-fluoro-2,6-dimethylbenzyl)amino)-2,3-dimethylimidazo[1,2-a]pyridin-6-yl)-2-hydroxypropanamide], the pIC50 is 6.30 to 7.00.

As for `Cc1cccc(C)c1CNc1cc(NC(=O)[C@@H](C)N)cn2c(C)c(C)nc12` [Example 20, (R)-2-amino-N-(8-((2,6-dimethylbenzyl)amino)-2,3-dimethylimidazo[1,2-a]pyridin-6-yl)propanamide hydrochloride], the negative logarithm of the IC50 (pIC50) was 7.00 to 7.30.

On to `Cc1cccc(C)c1CNc1cc(NC(=O)[C@@H]2CNCCN2)cn2c(C)c(C)nc12` [Example 94, (S)-N-(8-((2,6-dimethylbenzyl)amino)-2,3-dimethylimidazo[1,2-a]pyridin-6-yl)piperazine-2-carboxamide hydrochloride], for which the negative-log IC50 (pIC50) is above 7.30.
